From patent US11976062B2, “Benzisoxazole compound” (OSAKA UNIVERSITY, priority 2018, dated 2024)

How the values were obtained:
[1] = test system: α-SMA expression induced by TGFβ2 in cardiac fibroblasts; assay: Fibrosis inhibition evaluation 2: immunofluorescent staining of α-SMA in cardiac fibroblasts; assay type: cell-based, rats; conditions: 10 μM, TGFβ2 2 ng/ml, 48 hours, FIG. 8
Protocol: (§1) In the same manner as in Test Example 5, dermal fibroblasts were isolated from mice, and sterilized cover glass (diameter: 12 mm) was placed in a 12-well plate. On the cover glass, 2.5×10^5 cells were seeded and grown. After 24 hours, the medium was replaced with a medium free of fetal bovine serum, and the cells were cultured for another 24 hours. Separately, cardiac fibroblasts were isolated from 1 to 2-day-old rats and treated in the same manner as for the dermal fibroblasts. Thereafter, 10 ng/ml TGFβ1 was added to the dermal fibroblasts, and 2 ng/ml TGFβ2 was added to the cardiac fibroblasts, followed by culturing the cells for 48 hours. At the same time as TGFβ was added, 10 μM of a test compound (compound 011), 10 μM of Pyr 2 (conventional inhibitor), or DMSO (solvent control) was also added. Separately, cultured cells to which TGFβ-free phosphate buffered saline (PBS) was added were also prepared. […] After blocking with 1% bovine serum albumin, α-SMA was detected using anti-α-SMA antibody (Sigma) as the primary antibody and anti-mouse IgG antibody (Molecular Probes) fused with Alexa 488 as the secondary antibody, and an image was acquired using a fluorescence microscope (Keyence) with a 20× objective lens. The average fluorescence brightness (fluorescence intensity/pixel) per cell area was calculated and analyzed using Image J software.

[2] = test system: renal interstitial fibrosis caused by unilateral ureteral obstruction; conditions: mice; cited from earlier work
[3] = test system: α-SMA expression induced by TGFβ1 in dermal fibroblasts; assay: Fibrosis inhibition evaluation 1: western blotting of α-SMA in dermal fibroblasts; assay type: cell-based, mice; conditions: compound 011 0.1, 1, 10 μM (especially 10 μM); Pyr 2 10 μM; TGFβ1 10 ng/ml, 48 hours
Protocol: The expression of α-smooth muscle actin (α-SMA) in fibroblasts was evaluated by western blotting. Dermal fibroblasts were isolated from 1 to 3-day-old mice, and 2.5×10^5 cells were seeded in a 12-well plate. After 24 hours, the medium was replaced with a medium free of fetal bovine serum, and the cells were cultured for another 24 hours. Thereafter, 10 ng/ml of transforming growth factor β1 (TGFβ1) was added, and the cells were cultured for 48 hours. At the same time as TGFβ1 was added, a test compound (compound 011) of a predetermined concentration (0.1 μM, 1 μM, 10 μM) and 10 μM of Pyr 2 or DMSO (solvent control) were also added. […] The cultured cells were dissolved in a lysis buffer (140 mM NaCl, 20 mM Tris-HCl pH 7.8, 1% Triton-X100, 0.05% sodium deoxycholate, 0.1% SDS, 2 mM EDTA, proteinase inhibitor cocktail), and separated by SDS-PAGE, followed by detecting α-SMA using anti-α-SMA antibody (Sigma) as the primary antibody and anti-mouse IgG antibody (cell signaling) fused with horse radish peroxidase as the secondary antibody.

dermal fibroblasts = assay: Fibrosis inhibition evaluation 1: cell morphology observation of dermal fibroblasts; assay type: cell-based, mice; conditions: dermal fibroblasts cultured 48 hours with TGFβ1
[4] = test system: α-SMA expression induced by TGFβ1 in dermal fibroblasts; assay: Fibrosis inhibition evaluation 2: immunofluorescent staining of α-SMA in dermal fibroblasts; assay type: cell-based, mice; conditions: 10 μM, TGFβ1 10 ng/ml, 48 hours, FIG. 7
Protocol: as §1

Cc1nnsc1C(=O)Nc1ccc(-n2nc(C(F)(F)F)cc2C(F)(F)F)cc1 [Pyr 2, reference compound]
expression of α-SMA induced by TGFβ (immunofluorescent staining) [1]: almost completely suppressed the expression of α-SMA
suppression of renal interstitial fibrosis caused by unilateral ureteral obstruction [2]: suppresses renal interstitial fibrosis caused by unilateral ureteral obstruction
expression of α-SMA induced by TGFβ1 (western blotting) [3]: lighter coloration of the α-SMA antibody compared with the control
cell morphology / cell damage by microscopic observation (dermal fibroblasts): cell elongation
expression of α-SMA induced by TGFβ (immunofluorescent staining) [4]: almost completely suppressed the expression of α-SMA
